{"source": "patent US4372961A", "about": "“Derivatives of rifamycins, their preparation and pharmaceutical compositions thereof” (priority 1980, dated 1983)", "test_system": "Staphylococcus aureus", "experiment": "antibiotic activity (MIC) on Staphylococcus aureus", "assay_type": "cell-based"}
{"compound": "CO[C@H]1/C=C/O[C@@]2(C)Oc3c(C)c(O)c4c(O)c(c(/C=N/N5CCN(C)CC5)c(O)c4c3C2=O)NC(=O)/C(C)=C\\C=C\\[C@H](C)[C@H](O)[C@@H](C)[C@@H](O)[C@@H](C)[C@H](OC(C)=O)[C@@H]1C", "note": "[rifampicin]", "values": [{"measurement": "MIC", "result": "~0.01", "unit": "µg/mL"}]}
